{"source": "patent US9162975B2", "about": "“Phenyl carbamate compounds for use in alleviating or treating pain” (Bio-Pharm Solutions Co., Ltd., priority 2011, dated 2015)", "key": {"ICR mice [1]": {"tested_on": "ICR mice", "assay": "Writhing test (acetic acid)", "assay_type": "in vivo", "conditions": "Mus musculus, po, 1 h", "method": "To examine the pain relief effect of the phenyl carbamate compounds, a writhing test was conducted in general pain animal model referring to Fischer, L. G. et al. (2008).\nICR mice (male, 24-28 g; Orient Bio, Korea) were habituated before test in test room for 1 hour Animals were fasted 2 hr, before administration of compounds. Each of Compound 1, 2, 3, 4, 5, 63, 65, and 67 was orally administered at the dose of 20 mg/kg, 10 ul/g, bw (n=3˜5/group). All compounds were dissolved in a vehicle of 30% (v/v) PEG 400 or 20% (v/v) Tween 80. The control group was treated the vehicle without compounds.\nOne hour after the administration of Compounds, 0.6% acetic acid at the dose of 10 ul/g, bw was injected into the mice. Animals were habituated in the cage for 5 min 5 min after habituation, the number of writhes (abdominal constriction) for 15 min was counted referring to Korzeniewska-Rybicka, I. et al. (1998) and compared with that of a control."}, "SNL model in rats": {"tested_on": "SNL model in rats", "assay": "Antiallodynic activity on Chung model (SNL, spinal nerve ligation), von Frey", "assay_type": "in vivo, Sprague-Dawley rats", "conditions": "Rattus norvegicus, po, 1 h", "method": "Male Sprague-Dawley rats (200-220 g, Orient Bio, Korea) were habituated for 1 week before the experiment and allowed free access to food and water throughout the experimentation. Room temperature and humidity were maintained at 24±2° C. and 50±10%, respectively. Neuropathic surgery (SNL, Spinal nerve ligation) model was done as described in Kim and Chung (1992). Briefly, animal under gaseous anesthesia with isoflurane a 4:4 flow ratio of NO2. The left lumber spinal nerve L5 and L6 were isolated and tightly ligated with 4˜0 silk thread. The wound was treated with a gentamicin antibiotics solution (4 mg/kg, 4 ul/g, bw), and the wound muscle was closed with cat cut chrome 4/0 thread and skin was closed dafilon 4/0 tread. Sham controls were prepared in the same manner as the spinal nerves were exposed, but no ligated L5 and L6 nerves. But, vehicle controls were identical to SNL model, except for administration of vehicles.\nTactile sensitivity (Mechanical allodynia) was evaluated using von Frey monofilaments before and after treatment and animals were used withdrawal threshold value was less than 4 g. […] The tactile sensitivity for ipsilateral hind paw was measured using the up-and-down method (Dixon, 1980) with seven von Frey monofilaments (0.4, 1, 2, 4, 6, 8, and 15 g) to 3 trials. […] The 50% paw withdrawal threshold for each paw was calculated using the following formula: [Xth] log=[vFr] log+ky where [vFr] is the force of the last von Frey used, k=0.2249 which is the average interval (in log units) between the von Frey monofilaments, and y is a value that depends upon the pattern of withdrawal responses (Dixon, 1980).\nAll animals were fasted 18 h before the administration of the compounds. Antiallodynic effect of compounds of Examples 1, 63 and 65 were evaluated at the dose of 5, 10 and 30 mg/kg (n=5˜6), orally administrated in a volume of 5 ul/g, bw in a vehicle of 30% (v/v) PEG 400 (Examples 1 and 63) or 20% (v/v) Tween 80 (Example 65). […]"}, "[2]": {"tested_on": "CFA-induced pain model in rats", "assay": "Antiallodynic activity on Complete Freund's Adjuvant (CFA)-induced inflammatory pain model, von Frey", "assay_type": "in vivo, Sprague-Dawley rats", "conditions": "0.5 hr, paw withdrawal threshold relative to sham", "method": "Male, Sprague-Dawley rats (200-220 g, Nara Bio, Korea) were habituated for 1 week before surgery and allowed free access to food and water throughout the experimentation. Room temperature and humidity were maintained at 24±2° C. and 50±10%, respectively.\nCFA-induced inflammatory pain was induced by the procedure of Nagakura et al. (2003) and Gregory P. et al. (2010) with minor modifications. CFA (sigma, USA) was injected in the right plantar with a 100 ul volume under gaseous anesthesia with isoflurane a 4:4 flow ratio of NO2. Sham controls were injected with 100 ul of saline and vehicle controls were identical to CFA infusion model, except for administration of vehicles.\nTactile sensitivity (Mechanical allodynia) was evaluated using von Frey monofilaments before and after treatment, and animals were used withdrawal threshold value was less than 4 g. One week after surgery, CFA-infused animals (n=4˜6), sham-operated animals (n=12), and vehicle-operated animals (n=17) were tested for tactile sensitivity with von Frey monofilaments 3 trials in each animal. All Animals were placed in a stainless steel mashed chamber and habituated for 30 min in the test box. The tactile sensitivity for ipsilateral hind paw was measured using the up-and-down method (Dixon, 1980) with seven von Frey monofilaments (0.4, 1, 2, 4, 6, 8, and 15 g) to 3 trials. […] The 50% paw withdrawal threshold for each paw was calculated using the following formula: [Xth] log=[vFr] log+ky where [vFr] is the force of the last von Frey used, k=0.2249 which is the average interval (in log units) between the von Frey monofilaments, and y is a value that depends upon the pattern of withdrawal responses (Dixon, 1980).\nAntiallodynic effect of compound of Example 1 was evaluated at the dose of 10, 30 and 60 mg/kg (n=4˜6), intraperitoneally administrated in a volume of 5 ul/g bw in a vehicle of 30% (v/v) PEG. […]\nThe relative values compared to the sham (% control) were calculated and shown in Table 7 and FIG. 7, which show an antiallodynic effect of Compound 1 on CFA-induced pain model in rats."}, "ICR mice [3]": {"tested_on": "ICR mice", "assay": "Hot-plate test", "assay_type": "in vivo", "conditions": "withdrawal latency relative to vehicle control, 150 mg/kg po, hot plate 55±1° C.", "method": "To examine the pain relief effect of the phenyl carbamate compounds, a hot-plate test was conducted in general pain animal model referring to Current Protocols in Neuroscience; Behavioral Neuroscience Unit 8.9.\nICR mice (male, 30-35 g; Orient Bio, Korea) were habituated before test in test room for 1 hour Animals were fasted 2 hr before administration of compounds. Each of Compound 1, 2, 3, 4, 5, 63, 65, and 67 was orally administered at the dose of 150 mg/kg, 10 ul/g, bw (n=7˜10/group). All compounds were dissolved in a vehicle of 30% (v/v) PEG 400 or 20% (v/v) Tween 80. The control group was treated the vehicle without compounds.\n0.5 hr after the administration of compounds, the mice were put on a hot plate pre-heated to 55±1° C. (Hu, X. et al, 2008), and then, measured as the withdrawal latency (cut-off time: 30 sec) time until the point when each mouse was taking off a paw from the plate, shaking, licking a paw or hind leg, or jumping from the plate."}}, "data": [{"smiles": "C[C@H](OC(N)=O)[C@@H](O)c1ccccc1Cl", "note": "[Example 1, 1-(2-chlorophenyl)-(S)-1-hydroxypropyl-(S)-2-carbamate]", "values": [{"measurement": "ED50", "setting": "ICR mice [1]", "result": 14.1, "unit": "mg/kg"}, {"measurement": "ED50", "setting": "SNL model in rats", "result": 11.1, "unit": "mg/kg"}, {"measurement": "% Control (CFA-induced pain model)", "setting": "[2]; dose 10 mg/kg intraperitoneally", "result": 12.5, "unit": "%"}, {"measurement": "% Control (CFA-induced pain model)", "setting": "[2]; dose 30 mg/kg intraperitoneally", "result": 40.0, "unit": "%"}, {"measurement": "% Control (CFA-induced pain model)", "setting": "[2]; dose 60 mg/kg intraperitoneally", "result": 73.7, "unit": "%"}, {"measurement": "Hot-plate test (150 mg/kg, 0.5 h, po) % Control", "setting": "ICR mice [3]", "result": 135.7, "unit": "%"}]}]}
